# Source: US10308685B2, “Inhibitory peptides of viral infection” (UNIVERSITY OF TENNESSEE RESEARCH FOUNDATION, priority 2014, dated 2019)
# Where no end group is shown, it is not given here.
# Experiments:
# [1] = tested on: MCMV; experiment: Enzymatic treatment of cells (heparinase / chondroitinase) followed by MCMV plaque reduction assay; type: cell-based, Murine Cytomegalovirus
# Procedure: (§1) Heparinase I (cat. # H2519), Heparinase II (cat. # H6512), Heparinase III (cat. # H8891) and Chondroitinase ABC (cat. # C3667) were obtained from Sigma Aldrich (St. Louis, Mo.). MEF 10.1 cells in culture were treated with heparinase re-suspended in heparinase buffer (20 mM Tris-HCl, pH 7.5, 50 mM NaCl, 4 mM CaCl2, and 0.01% BSA) at a concentration of 1 U/ml or chondroitinase re-suspended in chondroitinase buffer (50 mM Tris, pH 8.0, 60 mM sodium acetate and 0.02% bovine serum albumin) at a concentration of 1 U/ml for 1 h. at 37° C. As a control, cells were treated with enzyme buffer alone. Following incubation the enzyme solution was removed and cells were washed once with PBS to remove excess enzyme. Subsequently the cells were treated with peptide or infected with virus. The data was collected and analyzed as described previously.
# [2] = tested on: HSV-2; experiment: Plaque reduction assay, HSV-2 in VERO cells; type: cell-based, herpes simplex virus; conditions: 100 μM
# Procedure: (§2) Murine Cytomegalovirus (MCMV) RM4503 was cultured in vitro in MEF 10.1 cells. The virus stock was titered using plaque assay (described below) and stored at −80° C. Human Cytomegalovirus (HCMV) TB40/E was obtained from (46, 47) and cultures in vitro in HFF cells. The virus stock was titered using plaque assay and stored at −80° C. HSV-1 and HSV-2 were cultured in vitro in VERO cells. The virus stock was titered using plaque assay and stored at −80° C.
# (§3) Peptides were screened for their ability to reduce viral infection using a plaque reduction assay. Cells were cultured in 12-well (VERO) or 24-well culture plates (MEF 10.1 and HFF). When the cells reached ˜80% confluence the media was removed and the cells washed once with PBS before addition of peptide. As a control, cells were incubated with PBS alone. After a 30 min of incubation with peptide in PBS, the virus was added and incubated for another 90 min (HSV and HCMV) or 60 min (MCMV). Following virus incubation the peptide/virus mixture was removed and replaced with 0.75% carboxy-methyl cellulose (Sigma Aldrich, St. Louis, Mo.)+complete media (CMC) or 0.5% agarose (Lonza, Rockland, Me.) in complete media. […] Plaques were counted manually and data analyzed using Prism 5.0 (GraphPad Software, La Jolla, Calif.). Data were expressed as % plaques relative to the average number of plaques in the PBS-treated wells.
# [3] = tested on: MCMV; experiment: Interference of peptide mediated reduction by heparin (MCMV plaque reduction); type: cell-based, Murine Cytomegalovirus; conditions: peptide 100 μM pre-incubated with heparin 1 h at 37° C. before addition to cells
# Procedure: Peptide GGGY-p5+14 (SEQ ID NO: 25) (at 100 μM) was pre-incubated with heparin sodium salt (Acros Organics, NJ) at different concentrations for 1 h at 37° C. Following which the heparin/peptide mix was added to the cells and incubated for 30 min at 37° C. Following the incubation, the supernatant was aspirated and cells washed once with PBS to remove unbound/excess heparin or peptide. The cells were subsequently infected with ˜100 pfu/well of MCMV. To test whether heparin treatment of cells interferes with virus infection, MEF 10.1 cells in a 24 well dish were pre-incubated with different concentrations of heparin for 1 hour and washed as described above. Following the pre-incubation infection was initiated as mentioned above. Finally to test the effect of heparin treatment on the infectivity of virus, MCMV was incubated with different concentration of heparin for lhr before infecting cells. For all these treatments, the virus was removed lhr post infection and cells overlaid with CMC. Plates were incubated for 4 days before staining and counting the plaques. Plaque reduction assay was performed as mentioned above.
# [4] = tested on: HCMV; experiment: Plaque reduction assay, HCMV infectivity in HFF cells; type: cell-based, Human Cytomegalovirus; conditions: 100 μM
# Procedure: as §2, §3
# [5] = tested on: MEF 10.1 cells; experiment: Measuring amount of bound biotinylated peptide on MEF 10.1 cells (time resolved fluorescence); type: binding, Mouse
# Procedure: as §1
# MEF 10.1 Cells were grown in 24-well cell culture plates as described above. Each well was probed with 100 μL of biotinylated peptides at 1 μg/mL in cold DMEM/F12 with 0.1% BSA and incubated for one hour at 4° C. Following the incubation the cells were washed twice with ice cold PBS and fixed with 1.25% glutaraldehyde. Fixed samples were washed twice and stored in PBS for 24 hours. […] The plate was washed three times with PBS, enhancement solution added, and time resolved fluorescence measured on the Wallac Victor 3 (Perkin-Elmer).
# [6] = tested on: MCMV; type: cell-based, Murine Cytomegalovirus
# Procedure: as §2
# Peptides were screened for their ability to reduce viral infection using a plaque reduction assay. Cells were cultured in 12-well (VERO) or 24-well culture plates (MEF 10.1 and HFF). When the cells reached ˜80% confluence the media was removed and the cells washed once with PBS before addition of peptide. As a control, cells were incubated with PBS alone. After a 30 min of incubation with peptide in PBS, the virus was added and incubated for another 90 min (HSV and HCMV) or 60 min (MCMV). Following virus incubation the peptide/virus mixture was removed and replaced with 0.75% carboxy-methyl cellulose (Sigma Aldrich, St. Louis, Mo.)+complete media (CMC) or 0.5% agarose (Lonza, Rockland, Me.) in complete media. The plates were incubated at 37° C. in 5% CO2 for 4 days when plaques began to develop, following which they were stained with Coomassie stain (AMRESCO, Solon, Ohio). Plaques were counted manually and data analyzed using Prism 5.0 (GraphPad Software, La Jolla, Calif.). Data were expressed as % plaques relative to the average number of plaques in the PBS-treated wells.
# In the initial screening assays all peptides were tested at a single concentration (500 μg/ml) using a plaque-reduction assay, in which mouse embryonic fibroblasts were incubated with the peptides for 30 min prior to the addition of virus.
# In the infectivity assays described above the peptide and virus were co-incubated with the cells. Therefore to ensure the peptide was not directly inactivating the virus, MCMV was incubated with 100 μM (˜20× the IC50) peptide at 37° C. for 1 h, diluted to an ineffective peptide concentration (1 μM) and fibroblast infection rates measured.
# To determine at which stage of the MCMV entry cycle the peptide interferes, four different peptide treatment protocols were tested, 1) 30 min. prior to infection (pre-adsorption) 2) simultaneously with virus (during adsorption) 3) after letting the virus adsorb to the cells at 4° C. for lhr (post adsorption) or 4) after allowing the virus to fuse with the cell membrane at 37° C. for lhr (post fusion) (FIG. 3(B)).
# [7] = mouse, in vivo; cited from earlier work
# [8] = tested on: MEF 10.1 cells; experiment: Visualization of bound biotinylated peptide on fixed MEF cells (fluorescence); type: binding, Mouse; conditions: 1.6 μg/mL, streptavidin fluorescence
# Procedure: Coverslips with fixed MEF cells prepared, washed in PBS and blocked with 1% BSA/PBS for 5 min. Following a PBS wash the nuclei were stained by using Hoechst (Life Technologies Molecular Probes, Grand Island, N.Y.) 1:100 in H2O— for 30 min at 37° C. Tissues were then blocked using a casein block solution (Scytek) for 5 min, AVIDIN/Biotin blocks (VECTOR, Burlingame, Calif.) for 20 min each at room temperature (RT) followed by a 5 min PBS wash. Biotinylated GGGY-p5+14 (SEQ ID NO: 25) or p5G (control) at 1.6 μg/mL in PBS was added and the tissues incubated overnight at 4° C. Following a PBS wash Alexa Fluor 594-conjugated streptavidin (Molecular Probes) was added at a 1:200 dilution in PBS for lhr at RT. Cells were then permeabilized by addition of 0.2% Triton X-100 (Sigma) in PBS for 10 min at RT and washed with a solution of 1% BSA in PBS for 30 min. The cells were then stained with Alexa Fluor 488-conjugated phalloidin (Molecular Probes) 1:100 dilution of stock in 1% BSA/PBS, for 45 min. at RT to visualize cytoskeleton. Slides were cover-slipped using a fluorescent mounting medium (Dako, Carpinteria, Calif.) to minimize photobleaching.
sequence,measurement,setting,value
GGGYSKAQKAQAKQAKQAQKAQKAQAKQAKQAQKAQKAQAKQAKQ [GGGY-p5+14],effect of chondroitinase treatment of cells on the activity of the peptide,[1]; chondroitinase 1 U/ml,nor did it have any effect on the activity of the peptide
same,"reduction in MCMV infectivity, peptide added to heparinase treated cells",[1]; heparinase 1 U/ml plus peptide,~80%
same,reduction of HSV 2 infection,[2],~40%
same,effect of pre-incubation of peptide with heparin on inhibition of MCMV infection,[3],reduced its ability to inhibit MCMV infection in a dose-dependent manner
same,reduction of infection (HCMV),[4],~80%
same,reduction in the amount of bound peptide,[5]; cells treated with chondroitinase,~11%
same,reduction in the amount of bound peptide,[5]; cells treated with heparinase,~40%
same,IC50,[6],5.2 µM
same,reduction in infection (MCMV),[6]; 10 μM,> 80%
same,inhibition of MCMV infection,[6]; 100 μM,effectively inhibited
same,inhibition of MCMV infection (plaque reduction),"[6]; 500 μg/ml, mouse embryonic fibroblasts incubated with peptide 30 min prior to virus",> 90%
same,direct neutralizing effect on the virus,"[6]; MCMV incubated with 100 μM peptide at 37° C. for 1 h, diluted to 1 μM",did not have any direct neutralizing effect on the virus itself
same,"plaque formation, peptide added after the adsorption or fusion phase of viral entry",[6]; post adsorption or post fusion,no significant reduction in plaque formation
same,"infection (plaque formation), peptide added before or in conjunction with virus addition",[6]; pre-adsorption or during adsorption,> 80%
same,concentrations giving significant reduction in infection,"[6]; serial dilution of peptide, FIG. 1(B)",> 5 µg/mL
same,peptide binding to GAGs expressed in healthy organs or tissues,[7],no evidence of peptide binding to GAGs expressed in healthy organs or tissues
same,binding to mouse fibroblasts in culture,[8],bound mouse fibroblasts
